Reference: patent US20030186289A1, “Model cell systems for screening of anti-hypertrophic therapeutics” (Myogen, Inc., priority 2002, published 2003)

How the values were obtained:
Assay type in all cases: cell-based, rat
MEF-2 reporter = experiment: 3×MEF2 promoter-luciferase reporter in H9C2 cells; conditions: for MEF-2 reporter expression: agonist 100 μM
From the text: Plasmid constructs used. Gal4 DNA-binding domain constructs were generated by cloning cDNAs encoding constitutively active murine calcineurin (residues 1-398) and full length human MEF-2 into the pBIND expression vector (Promega, Inc.). VP16 fusion constructs were created by cloning full length human MCIP1 and HDAC5 cDNAs into the pACT expression vector (Promega, Inc.). In assays, Gal4 and VP16 fusion constructs were cotransfected with pG5-luc reporter (Promega), a firefly luciferase gene under control of a multimerized Gal4 promoter sequence. Promoter reporter constructs were generated by cloning the promoter regions of ANF, α-skeletal actin, IL-2 (with multiple NFAT binding sites) and myoglobin genes upstream of a promoter-less firefly luciferase open reading frame (pGL3 plasmid, Promega, Inc.). Similarly, three consensus MEF-2 binding sites or a single TATA element were cloned into pGL3. HDAC5-GFP construct was a gift from E. Olson, UT Southwestern Medical Center, Dallas Tex.
Cells culture and transient transfections. All muscle cell lines were obtained from the American Type Culture Collection (ATCC). Cells were cultured under conditions recommended by ATCC. Transient transfections were carried out in 96-well plates (5000 cells/well) using the Fugene transfection reagent (Roche), as per manufacturer's instructions. […] Forty-eight hours post-transfection, cells were processed for luciferase measurements.
Adenoviral constructs. Recombinant adenovirus α-skeletal actin-luc, and 3×MEF2-luc were constructed using the Adeasy vector system (Qbiogene) according to manufacturers instructions. Recombinant adenovirus HDAC5 and HDAC5-S259/498A were provided by E. Olson. Recombinant adenovirus MCIPexon4 was provided by S. Williams. Recombinant adenovirus β-galactosidase was from Qbiogene. Cells were plated in 96-well plates, and 24 hr after plating, were infected with recombinant adenovirus at moi of 50 in serum free media for three hrs. Forty-eight hrs after infection, the cells were lysed and luciferase levels were measured as above.
Luciferase measurement. Transiently transfected or adenovirus transfected cells were processed for luciferase activity using the Luc-Lite assay kit (Packard), as per manufacturer's instructions. Briefly, cells were washed in serum- and phenol red-free medium, then lysed in the presence of luciferase substrate to produce a long half-life “glow” luminescence. Relative light intensity was quantitated on a Fusion Universal Microplate Analyzer (Packard).

[1] = system: hypertrophic promoter activity (ANF, NFAT, MEF2, aSkAct, Myb); experiment: hypertrophic promoter-luciferase constructs in H9C2 cells, agonist dose-response survey; conditions: dose-response survey of agonists
Protocol: FIG. 5—H9C2 promoter activity is unresponsive to the adrenergic agonists isoproterenol, norepinephrine and forskolin. H9 cells were transfected with promoter-luciferase contructs as shown and as described in materials and methods. Transfected cells were treated with hypertrophic agonists as shown. Luciferase units were measured and plotted as fraction of untreated control vs concentration of agonist used. Symbols ANF, NFAT, MEF2, aSkAct, and Myb are used as in FIG. 3.
Plasmid constructs used. Gal4 DNA-binding domain constructs were generated by cloning cDNAs encoding constitutively active murine calcineurin (residues 1-398) and full length human MEF-2 into the pBIND expression vector (Promega, Inc.). VP16 fusion constructs were created by cloning full length human MCIP1 and HDAC5 cDNAs into the pACT expression vector (Promega, Inc.). […] Promoter reporter constructs were generated by cloning the promoter regions of ANF, α-skeletal actin, IL-2 (with multiple NFAT binding sites) and myoglobin genes upstream of a promoter-less firefly luciferase open reading frame (pGL3 plasmid, Promega, Inc.). […]
Luciferase measurement. […] Briefly, cells were washed in serum- and phenol red-free medium, then lysed in the presence of luciferase substrate to produce a long half-life “glow” luminescence. Relative light intensity was quantitated on a Fusion Universal Microplate Analyzer (Packard).

[2] = system: alpha skeletal actin promoter; experiment: alpha skeletal actin promoter-luciferase reporter in H9C2 cells
Protocol: Cells culture and transient transfections. […] Cells were cultured under conditions recommended by ATCC. Transient transfections were carried out in 96-well plates (5000 cells/well) using the Fugene transfection reagent (Roche), as per manufacturer's instructions. […] Forty-eight hours post-transfection, cells were processed for luciferase measurements.
Adenoviral constructs. Recombinant adenovirus α-skeletal actin-luc, and 3×MEF2-luc were constructed using the Adeasy vector system (Qbiogene) according to manufacturers instructions. […] Recombinant adenovirus β-galactosidase was from Qbiogene. Cells were plated in 96-well plates, and 24 hr after plating, were infected with recombinant adenovirus at moi of 50 in serum free media for three hrs. Forty-eight hrs after infection, the cells were lysed and luciferase levels were measured as above.

[3] = recombinant adenovirus infection, moi of 50
[4] = drug added at transfection or expression construct, 48 h

Row | Molecule | MEF-2 reporter expression (MEF-2 reporter) | hypertrophic promoter activity [1] | also measured
1 | CC[C@H](C)[C@H](NC(=O)[C@H](CC(=O)O)NC(=O)[C@H](CC(C)C)NC(=O)[C@H](Cc1c[nH]cn1)NC(=O)[C@@H]1CSSC[C@H](N)C(=O)N[C@@H](CO)C(=O)N[C@H]2CSSC[C@H](NC(=O)[C@H](CCC(=O)O)NC(=O)[C@H](CCCCN)NC(=O)[C@H](CC(=O)O)NC(=O)[C@H](CCSC)NC(=O)[C@H](CC(C)C)NC(=O)[C@H](CO)NC(=O)[C@H](CO)NC2=O)C(=O)N[C@@H](C(C)C)C(=O)N[C@@H](Cc2ccc(O)cc2)C(=O)N[C@@H](Cc2ccccc2)C(=O)N1)C(=O)N[C@H](C(=O)N[C@@H](Cc1c[nH]c2ccccc12)C(=O)O)[C@@H](C)CC [endothelin] | unaffected | – | –
2 | CC(C)NCC(O)c1ccc(O)c(O)c1 (centres unmarked) [isoproterenol] | – | relatively unaffected | –
3 | NC[C@H](O)c1ccc(O)c(O)c1 [norepinephrine] | – | relatively unaffected | –
4 | CNC[C@H](O)c1cccc(O)c1 [phenylephrine] | unaffected | – | –
5 | HDAC5-S259/498A: mutant of HDAC5 where serine residues 259 and 498 are replaced by alanine; super-repressor of the MEF-2 pathway | – | – | repression of the 3×MEF2 promoter (MEF-2 reporter; [3]): most effective repressor; repression of the alpha-skeletal-actin promoter [2, 3]: most effective repressor
6 | HDAC: anti-hypertrophic gene product HDAC5, MEF-2 inhibitor, expressed by transfection or adenovirus | – | – | expression of MEF-2 reporter (MEF-2 reporter; [4]): significantly reduced; expression of alpha skeletal actin reporter [2, 4]: significantly reduced
